≈ marks a conversion by molar mass, not a printed value. Read-outs that look alike come from different tables or passages of the source.
Legend:
S. epidermidis = experiment: In vitro broth microdilution minimal inhibitory concentration, S. epidermidis (Table I); format: cell-based; settings: Staphylococcus epidermidis, read-out: MIC (minimal inhibitory concentration), S. epidermidis
Description: (§1) A list is presented in Table I of analogs which exert an in-vitro antibacterial effect.

E. Coli [1] = experiment: In vitro broth microdilution minimal inhibitory concentration, E. Coli (Table I); format: cell-based; settings: Escherichia coli, read-out: MIC (minimal inhibitory concentration), E. Coli
Description: as §1

E. coli [2] = experiment: In vivo efficacy in mice infected intraperitoneally with E. coli (Table III); settings: Escherichia coli, 4 h, read-out: ED50, E. Coli
Method: (§2) In-vivo efficacy determinations were performed by inoculating mice interaperitoneally with cultures of the infecting organism diluted to produce 90-100% mortality in control animals within seven days. The diluents used were trypticase soy broth for E. coli, Proteus sp. and Psuedomonas aeruginosa and 5% hog gastric mucin for Staphylococcus aureus infections. The compounds, dissolved or suspended in 0.25% methocel.cndot.H2 O were administered orally by intubation at the time of infection and again at four hours post-infection. Mortality was recorded daily until test termination and the 50 percent effective dose. ED50, was calculated by the Reed-Muench method (Reed, L. G. and Muench, H., "A simple method of estimating fifty percent end points." American Journal of Hygiene, 27, 1938, 493-497).

Staphylococcus aureus = experiment: In vivo efficacy in mice infected intraperitoneally with Staphylococcus aureus (Table III); settings: 4 h, read-out: ED50, S. auerus
Method: as §2

[3] = broth microdilution, Mueller-Hinton broth, 24 hour
[4] = mice, intraperitoneal infection, trypticase soy broth, oral dosing at infection and four hours post-infection, Reed-Muench
[5] = mice, intraperitoneal infection, 5% hog gastric mucin, oral dosing at infection and four hours post-infection, Reed-Muench

CN(C)S(=O)(=O)c1ccc(N2CC(CO)OC2=O)cc1 (racemic) [Example 3a, dl-N,N-dimethyl-4-[5-(hydroxymethyl)-2-oxooxazolidin-3-yl]benzenesulfonamide]
MIC (S. epidermidis; [3]): 50 µg/mL (≈ 166 µM) | MIC (E. Coli [1]; [3]): > 200 µg/mL

CNS(=O)(=O)c1ccc(N2CC(CO)OC2=O)cc1 (racemic) [Example 3b, dl-N-methyl-4-[5-(hydroxymethyl)-2-oxooxazolidin-3-yl]benzenesulfonamide]
MIC (S. epidermidis; [3]): 50 µg/mL (≈ 175 µM) | MIC (E. Coli [1]; [3]): > 200 µg/mL

[N-]=[N+]=NS(=O)(=O)c1ccc(N2CC(CO)OC2=O)cc1 (racemic) [Example 4, dl-4-[5-(Hydroxymethyl)-2-oxooxazolidin-3-yl]benzenesulfonyl Azide]
ED50 (E. coli [2]; [4]): 17.9 mg/kg | MIC (S. epidermidis; [3]): 4.2 µg/mL (≈ 14.1 µM) | ED50 (Staphylococcus aureus; [5]): 26 mg/kg | MIC (E. Coli [1]; [3]): 12.5 µg/mL (≈ 41.9 µM)

O=C1OC(CO)CN1c1ccc(S(=O)(=O)N(Cl)Cl)cc1 (racemic) [Example 11, dl-N,N-Dichloro-4-[5-(hydroxymethyl)-2-oxooxazolidin-3-yl]benzenesulfonamide]
ED50 (E. coli [2]; [4]): 53.7 mg/kg | MIC (S. epidermidis; [3]): > 100 µg/mL | ED50 (Staphylococcus aureus; [5]): 36.3 mg/kg | MIC (E. Coli [1]; [3]): > 100 µg/mL

O=C1OC(CO)CN1c1ccc(S(=O)(=O)NCl)cc1.[Na] (racemic) [Example 13, dl-N-Chloro-4-[5-(hydroxymethyl)-2-oxooxazolidin-3-yl]benzenesulfonamide, sodium salt]
ED50 (E. coli [2]; po): 43.6 mg/kg | MIC (S. epidermidis; 24 h): 100 µg/mL | ED50 (Staphylococcus aureus; po): 47.4 mg/kg | MIC (E. Coli [1]; 24 h): 200 µg/mL

CS(C)=NS(=O)(=O)c1ccc(N2CC(CO)OC2=O)cc1 (racemic) [Example 15, dl-N-{4-[5-(Hydroxymethyl)-2-oxooxazolidin-3-yl]-phenylsulfonyl}-S,S-dimethylsulfilimine]
ED50 (E. coli [2]; [4]): 118 mg/kg | MIC (S. epidermidis; [3]): > 100 µg/mL | ED50 (Staphylococcus aureus; [5]): 48.5 mg/kg | MIC (E. Coli [1]; [3]): > 100 µg/mL

NNS(=O)(=O)c1ccc(N2CC(CO)OC2=O)cc1 (racemic) [Example 16, dl-3-[4-Hydrazinosulfonyl)phenyl]-5-(hydroxymethyl)-2-oxazolidin-2-one]
ED50 (E. coli [2]; [4]): > 360 mg/kg | MIC (S. epidermidis; [3]): > 100 µg/mL | ED50 (Staphylococcus aureus; [5]): 119 mg/kg | MIC (E. Coli [1]; [3]): > 100 µg/mL

CC(=O)OCC1CN(c2ccc(S(N)(=O)=O)cc2)C(=O)O1 (racemic) [Example 17, dl-4-[5-(Acetoxymethyl)-2-oxooxazolidin-3-yl]benzenesulfonamide]
ED50 (E. coli [2]; [4]): 48.9 mg/kg | MIC (S. epidermidis; [3]): > 50 µg/mL | ED50 (Staphylococcus aureus; [5]): 47.1 mg/kg | MIC (E. Coli [1]; [3]): > 50 µg/mL

CCC(=O)OCC1CN(c2ccc(S(N)(=O)=O)cc2)C(=O)O1 (racemic) [Example 19, dl-4-[5-(Propionyloxymethyl)-2-oxooxazolidin-3-yl]-benzenesulfonamide]
ED50 (E. coli [2]; [4]): > 360 mg/kg | MIC (S. epidermidis; [3]): 25 µg/mL (≈ 76.1 µM) | ED50 (Staphylococcus aureus; [5]): 166 mg/kg | MIC (E. Coli [1]; [3]): > 100 µg/mL

NS(=O)(=O)c1ccc(N2CC(COC(=O)CCC(=O)O)OC2=O)cc1 (racemic) [Example 20, dl-Butanedioic acid, Mono Ester with 4-[5-(Hydroxymethyl)-2-oxooxazolidin-3-yl]benzenesulfonamide]
ED50 (E. coli [2]; [4]): 77.3 mg/kg | MIC (S. epidermidis; [3]): > 100 µg/mL | ED50 (Staphylococcus aureus; [5]): 85.3 mg/kg | MIC (E. Coli [1]; [3]): > 100 µg/mL

O=C(NS(=O)(=O)c1ccc(N2CC(CO)OC2=O)cc1)C(Cl)Cl (racemic) [Example 34, dl-2,2-Dichloro-N-[4-[5-(Hydroxymethyl)-2-oxooxazolidin-3-yl]phenylsulfonyl]acetamide]
MIC (S. epidermidis; [3]): > 200 µg/mL | ED50 (Staphylococcus aureus; [5]): 18.3 mg/kg | MIC (E. Coli [1]; [3]): > 200 µg/mL

O=C1OC(CO)CN1c1ccc(S(=O)(=O)NC(=O)C(Cl)(Cl)Cl)cc1 (racemic) [Example 35, dl-2,2,2-Trichloro-N-[4-[5-(hyroxymethyl)-2-oxooxazolidin-3-yl]phenylsulfonyl]acetamide]
MIC (S. epidermidis; [3]): > 200 µg/mL | ED50 (Staphylococcus aureus; [5]): 58.5 mg/kg | MIC (E. Coli [1]; [3]): > 200 µg/mL

CC(=NO)c1ccc(N2CC(CO)OC2=O)cc1 (racemic) [Example 37, dl-5-Hydroxymethyl-3-[4-(1-hydroxyiminoethyl)phenyl]-2-oxazolidinone]
MIC (S. epidermidis; [3]): > 50 µg/mL | ED50 (Staphylococcus aureus; [5]): 68 mg/kg | MIC (E. Coli [1]; [3]): > 50 µg/mL

CON=C(C)c1ccc(N2CC(CO)OC2=O)cc1 (racemic) [Example 38, dl-5-Hydroxymethyl-3-[4-(1-methoxyiminoethyl)phenyl]-2-oxazolidinone]
ED50 (Staphylococcus aureus; [5]): 76.6 mg/kg

CC(C)c1ccc(N2CC(CO)OC2=O)cc1 (racemic) [Example 39]
ED50 (Staphylococcus aureus; [5]): 116 mg/kg

C=CCOCC1CN(c2ccc(C(C)C)cc2)C(=O)O1 (racemic) [Example 40]
ED50 (Staphylococcus aureus; [5]): 79.8 mg/kg

CC(=O)c1ccc(N2CC(CO)OC2=O)cc1 (racemic) [Example 41]
ED50 (E. coli [2]; [4]): 97.6 mg/kg | ED50 (Staphylococcus aureus; [5]): 35.8 mg/kg

N#Cc1ccc(N2CC(CO)OC2=O)cc1 (racemic) [Example 42]
ED50 (Staphylococcus aureus; [5]): 66.4 mg/kg

O=C1OC(CO)CN1c1ccc([N+](=O)[O-])cc1 (racemic) [Example 43]
ED50 (E. coli [2]; [4]): > 360 mg/kg | ED50 (Staphylococcus aureus; [5]): 40 mg/kg

NS(=O)(=O)c1ccc(N2CC(CO)OC2=O)cc1 (stereo not shown) [Example 1, 4-[5-(Hydroxymethyl)-2-oxooxazolidin-3-yl]benzenesulfonamide]
ED50 (E. coli [2]; [4]): 19.7 mg/kg | MIC (S. epidermidis; [3]): 100 µg/mL (≈ 367 µM) | ED50 (Staphylococcus aureus; [5]): 40.2 mg/kg | MIC (E. Coli [1]; [3]): 100 µg/mL (≈ 367 µM)

[N-]=[N+]=NS(=O)(=O)c1ccc(N2C[C@@H](CO)OC2=O)cc1 [Example 5, l-4-[5-(Hydroxymethyl)-2-oxooxazolidin-3-yl]benzenesulfonyl Azide]
ED50 (E. coli [2]; [4]): 14.9 mg/kg | MIC (S. epidermidis; [3]): 2.4 µg/mL (≈ 8.05 µM) | ED50 (Staphylococcus aureus; [5]): 24.9 mg/kg | MIC (E. Coli [1]; [3]): 7.9 µg/mL (≈ 26.5 µM)

CNS(=O)(=O)c1ccc(N2C[C@@H](CO)OC2=O)cc1 [Example 6, l-4-[5-(Hydroxymethyl)-2-oxooxazolidin-3-yl]-N-methylbenzenesulfonamide]
ED50 (E. coli [2]; [4]): 39.7 mg/kg | MIC (S. epidermidis; [3]): 62.5 µg/mL (≈ 218 µM) | ED50 (Staphylococcus aureus; [5]): 15.4 mg/kg | MIC (E. Coli [1]; [3]): ≥ 200 µg/mL

O=C1O[C@H](CO)CN1c1ccc(S(=O)(=O)NC2CC2)cc1 [Example 9, l-4-[5-(Hydroxymethyl)-2-oxooxazolidin-3-yl]-N-cyclopropylbenzenesulfonamide]
MIC (S. epidermidis; [3]): > 100 µg/mL | ED50 (Staphylococcus aureus; [5]): 89.2 mg/kg | MIC (E. Coli [1]; [3]): > 100 µg/mL

CONS(=O)(=O)c1ccc(N2C[C@@H](CO)OC2=O)cc1 [Example 10, l-4-[5-(Hydroxymethyl)-2-oxooxazolidin-3-yl]-N-methoxybenzenesulfonamide]
MIC (S. epidermidis; [3]): 100 µg/mL (≈ 331 µM) | ED50 (Staphylococcus aureus; [5]): 52 mg/kg | MIC (E. Coli [1]; [3]): > 100 µg/mL

COC[C@@H]1CN(c2ccc(SC)cc2)C(=O)O1 [Example 31, l-5-(Methoxymethyl)-3-[4-(methylthio)phenyl]-2-oxazolidinone]
MIC (S. epidermidis; [3]): > 200 µg/mL | ED50 (Staphylococcus aureus; [5]): 54.6 mg/kg | MIC (E. Coli [1]; [3]): > 200 µg/mL

COC[C@@H]1CN(c2ccc(S(C)(=O)=O)cc2)C(=O)O1 [Example 32, l-5-(Methoxymethyl)-3-[4-(methylsulfonyl)phenyl]-2-oxazolidinone]
ED50 (E. coli [2]; [4]): 11.8 mg/kg | MIC (S. epidermidis; [3]): 100 µg/mL (≈ 350 µM) | ED50 (Staphylococcus aureus; [5]): 5.1 mg/kg | MIC (E. Coli [1]; [3]): > 200 µg/mL

COC[C@@H]1CN(c2ccc(S(N)(=O)=O)cc2)C(=O)O1 [Example 33, l-4-[5-(Methoxymethyl)-2-oxooxazolidin-3-yl]benzenesulfonamide]
MIC (S. epidermidis; [3]): > 200 µg/mL | ED50 (Staphylococcus aureus; [5]): 59.6 mg/kg | MIC (E. Coli [1]; [3]): > 200 µg/mL

CC(=O)NS(=O)(=O)c1ccc(N2CC(CO)OC2=O)cc1 (stereo not shown) [Example 36, N-[4-[5-(Hydroxymethyl)-2-oxooxazolidin-3-yl]phenylsulfonyl]acetamide]
ED50 (E. coli [2]; [4]): 56.9 mg/kg | MIC (S. epidermidis; [3]): > 100 µg/mL | ED50 (Staphylococcus aureus; [5]): > 120 mg/kg | MIC (E. Coli [1]; [3]): > 100 µg/mL
